Test results from patent US9359311B2, “Substituted aromatic oligomers” (NEUROSCIOS GMBH, priority 2011, dated 2016).

Columns and labels:
[1] = system: primary chicken neurons; test: Inhibition of Abeta 1-42 toxicity on primary chicken neurons (MTT); format: cell-based; set-up: key: No: no effect; +: minor positive effect on cell viability in the presence of aggregated Aβ 1-42; ++: medium positive effect on cell viability in the presence of aggregated Aβ 1-42; +++: strong positive effect on cell viability in the presence of aggregated Aβ 1-42; conditions: 10 μM Aβ1-42 aggregated together with compound for 48 h
Experimental: One-day-old fertilized eggs are stored under appropriate conditions until start of breeding. On embryonic day 0 eggs are transferred to the breeding incubator and under turning, kept at 37.8° C. and 55% humidity until embryonic day eight. Neurons are prepared as follows: In short, embryos are transferred to a plastic dish, and decapitated. Both brain hemispheres are removed, collected and any loose tissue removed. Hemispheres are mechanically dissociated and 4.8×10^4 cells per well (96-well plates) are seeded in a volume of 160 μl.
Aβ1-42 (MW 4514.1) was obtained from American Peptide Company as a lyophilized powder. A stock solution of 340 μM Aβ1-42 was prepared in 50 mM Tris-Buffer, 150 mM NaCl, pH7.6 according to the manufacturer's instructions. After sonication, the stock solution is diluted 1:1 with the test compounds to obtain a concentration of 170, 17 and 1.7 μM. After aggregation at 4° C. for 48 h, the solutions are sonicated again prior to application to the cells. The final concentration of Aβ1-42 applied to the primary chicken neurons is 10 μM.
Aβ1-42 aggregated together with compound for 48 hrs was applied to chicken neurons at DIV4 (days in vitro) and analyzed at DIV10 (144 hrs) and all others were applied to chicken neurons at DIV6 and analysed at DIV10 (96 hrs).
Viability of cultures is determined by the MTT assay. The MTT assay allows for the measurement of the mitochondrial dehydrogenase activity which reduces yellow MTT to dark blue formazan crystals. Since this reaction is catalyzed in living cells only this assay is used for the determination of cell viability. MTT solution is added to each well in a final concentration of 0.5 mg/ml. After 2 hours the MTT containing medium is aspired. Cells are lysed in 3% SDS and the formazan crystals are dissolved in isopropanol/HCl. Optical density is measured with a plate-reader at wavelength 570 nm. Cell survival rate is expressed as a percentage of optical density (OD) relative to control cells not treated with Aβ or compound.

[2] = target: T1, biotinylated Aβ1-42 (Homo sapiens, UniProt P05067); test: Inhibition of Abeta oligomerisation (biotinylated Aβ1-42, neutravidin plate, streptavidin-HRP); format: biochemical; conditions: inhibition of Aβ1-42 aggregation, approximately 12 nM Aβ1-42, PBS pH 7.4, 2% DMSO, 30 min RT
T1 construct: To assure monomerisation of biotinylated Aβ1-42 (Anaspec #23523-0.5) the peptide was thoroughly monomerised; purchased Anaspec 23523-0.5

[3] = system: prion; conditions: Ref: JBC doi: 10.1074/jbc.M112.355958; cited from earlier work

T1 sequence (P05067 672-713 limits assumed): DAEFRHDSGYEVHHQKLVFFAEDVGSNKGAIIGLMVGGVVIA

Structure (SMILES)	Rescue of Abeta toxicity (MTT) ([1]; Conc. 0.1 μM)	Rescue of Abeta toxicity (MTT) ([1]; Conc. 1 μM)	Rescue of Abeta toxicity (MTT) ([1]; Conc. 10 μM)	IC50 [2] [nM]	anti-prion potential [3]	pIC50 [2]
O=C(O)Cc1cc(-c2ccc(-c3cc(CC(=O)O)c(-c4ccc(C(=O)O)s4)s3)s2)sc1-c1ccc(C(=O)O)s1 [Example 6, 5-[3-(Carboxymethyl)-5-{5-[4-(carboxymethyl)-5-(5-carboxythiophen-2-yl)thiophen-2-yl]thiophen-2-yl}thiophen-2-yl]thiophene-2-carboxylic acid]	++	+	+++	7940		
O=C(O)Cc1cc(-c2ccc(C(=O)O)cc2)sc1-c1ccc(-c2sc(-c3ccc(C(=O)O)cc3)cc2CC(=O)O)s1 [Example 9, 4-[4-(Carboxymethyl)-5-{5-[3-(carboxymethyl)-5-(4-carboxyphenyl)thiophen-2-yl]thiophen-2-yl}thiophen-2-yl]benzoic acid]		++	+++	15800		
CS(=O)(=O)c1ccc(-c2cc(CC(=O)O)c(-c3ccc(-c4sc(-c5ccc(S(C)(=O)=O)cc5)cc4CC(=O)O)s3)s2)cc1 [Example 16, 2-(2-{5-[3-(Carboxymethyl)-5-(4-methanesulfonylphenyl)thiophen-2-yl]thiophen-2-yl}-5-(4-methanesulfonylphenyl)thiophen-3-yl)acetic acid]		+++	+++	5010		
O=C(O)Cc1ccsc1-c1ccc(-c2sc(-c3cc(CC(=O)O)c(-c4ccc(-c5sccc5CC(=O)O)s4)s3)cc2CC(=O)O)s1 [Example 17, 2-(2-{5-[3-(Carboxymethyl)-5-[4-(carboxymethyl)-5-{5-[3-(carboxymethyl)thiophen-2-yl]thiophen-2-yl}thiophen-2-yl]thiophen-2-yl]thiophen-2-yl}thiophen-3-yl)acetic acid]	+	no	+++	5010		
O=C(O)Cc1cc(-c2ccc(-c3ccc(C(=O)O)s3)s2)sc1-c1ccc(-c2sc(-c3ccc(-c4ccc(C(=O)O)s4)s3)cc2CC(=O)O)s1 [Example 18, 5-{5-[4-(Carboxymethyl)-5-{5-[3-(carboxymethyl)-5-[5-(5-carboxythiophen-2-yl)thiophen-2-yl]thiophen-2-yl]thiophen-2-yl}thiophen-2-yl]thiophen-2-yl}thiophene-2-carboxylic acid]	++	+	no	1260		
O=C(O)Cc1cc(-c2ccccc2)sc1-c1ccc(-c2sc(-c3ccccc3)cc2CC(=O)O)s1 [Example 21, 2-(2-{5-[3-(Carboxymethyl)-5-phenylthiophen-2-yl]thiophen-2-yl}-5-phenylthiophen-3-yl)acetic acid]	no	++	no	2510		
O=C(O)Cc1ccsc1-c1ccc(-c2sc(-c3ccc(-c4cc(CC(=O)O)c(-c5ccc(-c6sccc6CC(=O)O)s5)s4)cc3)cc2CC(=O)O)s1 [Example 33, 2-(2-{5-[3-(Carboxymethyl)-5-{4-[4-(carboxymethyl)-5-{5-[3-(carboxymethyl)thiophen-2-yl]thiophen-2-yl}thiophen-2-yl]phenyl}thiophen-2-yl]thiophen-2-yl}thiophen-3-yl)acetic acid]	no	++	no	794		
O=C(O)Cc1ccsc1-c1ccc(-c2sc(-c3cccc(-c4cc(CC(=O)O)c(-c5ccc(-c6sccc6CC(=O)O)cc5)s4)c3)cc2CC(=O)O)cc1 [Example 39, 2-(5-{3-[4-(Carboxymethyl)-5-{4-[3-(carboxymethyl)thiophen-2-yl]phenyl}thiophen-2-yl]phenyl}-2-{4-[3-(carboxymethyl)thiophen-2-yl]phenyl}thiophen-3-yl)acetic acid]	+	+	no	794		
CS(=O)(=O)c1ccc(-c2ccc(-c3sc(-c4cc(CC(=O)O)c(-c5ccc(-c6ccc(S(C)(=O)=O)cc6)s5)s4)cc3CC(=O)O)s2)cc1 [Example 50, 2-{5-[4-(Carboxymethyl)-5-[5-(4-methanesulfonylphenyl)thiophen-2-yl]thiophen-2-yl]-2-[5-(4-methanesulfonylphenyl)thiophen-2-yl]thiophen-3-yl}acetic acid]	no	+++	+++	2510		
O=C(O)Cc1ccccc1-c1ccc(-c2cc(CC(=O)O)c(-c3ccc(-c4sc(-c5ccc(-c6ccccc6CC(=O)O)s5)cc4CC(=O)O)s3)s2)s1 [Example 56, 2-(2-{5-[3-(Carboxymethyl)-5-{5-[2-(carboxymethyl)phenyl]thiophen-2-yl}thiophen-2-yl]thiophen-2-yl}-5-{5-[2-(carboxymethyl)phenyl]thiophen-2-yl}thiophen-3-yl)acetic acid]	+	+++	+++	3160		
O=C(O)CCc1ccsc1-c1ccc(-c2sc(-c3ccc(-c4cc(CCC(=O)O)c(-c5ccc(-c6sccc6CCC(=O)O)s5)s4)s3)cc2CCC(=O)O)s1 [Example 62, 3-(2-{5-[3-(2-Carboxyethyl)-5-{5-[4-(2-carboxyethyl)-5-{5-[3-(2-carboxyethyl)thiophen-2-yl]thiophen-2-yl}thiophen-2-yl]thiophen-2-yl}thiophen-2-yl]thiophen-2-yl}thiophen-3-yl)propanoic acid]	++	+++		398		
O=C(O)Cc1cc(-c2cccs2)sc1-c1ccc(-c2sc(-c3cccs3)cc2CC(=O)O)s1 [p-HTAA, reference compound]					pronounced anti-prion potential	5.7
